Data from patent US7420090B2 (priority 2002, dated 2008).

Test system: Pyrenophora teres
Assay type: in vivo
Details: 200 ppm

CCC(Oc1cc(Cl)cc(Cl)c1)C(=O)NC(C)(C)C#CCCCOC (stereo not shown) [4(57), 2-(3,5-dichlorophenoxy)-N-(1-methoxy-6-methylhept-4-yn-6-yl) butyramide]
control of fungal infection (preventive fungicidal activity): more than 60%
